Results as given in patent US20250032400A1, “PERSONAL CARE COMPOSITION” (Conopco, Inc., d/b/a UNILEVER, priority 2021, published 2025).

Tests used:
[1] = tested on: hyaluronan synthase 3 (HAS3); assay: HAS3 gene expression by RT-PCR in normal human epidermal keratinocytes incubated with actives; type: cell-based; conditions: NHEK, 24 hours, 0.05 wt % of LCC in medium
Protocol: (§1) The normal human epidermal keratinocytes (NHEK) (Biocell, Xi'an, China) were incubated in medium together with or without actives for 24 hours. After incubation, the total RNA for each NHEK was extracted using RNAiso Plus (TaKaRa, Cat: 9108; Cat: RR036) according to manufacturer's protocol.
(§2) The extracted RNA was quantified using Nanodrop spectrometer (Thermo Fisher Scientific, Waltham, MA, US) and reverse transcribed to generate the template cDNA using the PrimeScript II 1st Strand cDNA synthesis kit according to manufacturer's protocol. Amplification of the gene encoding the hyaluronan synthase 3 (HAS3) and CD44 was performed with RT-PCR reagent (SYBR® Premix Ex Taq™) on the ABI Vii 7 Real-Time PCR Systems (Applied Biosystems, Thermo fisher scientific, Carlsbad, CA, USA). The beta-actin gene was selected as the housekeeping gene and all data on relative expression of the target genes was normalized to beta-actin. The fold changes in expression were calculated relative to the blank control (medium having no active).

CD44 = CD44 gene expression by RT-PCR in normal human epidermal keratinocytes incubated with actives; type: cell-based; conditions: NHEK, 24 hours, 0.05 wt % of LCC in medium
Protocol: as §1, §2

## Lysine carboxymethyl cysteinate [LCC]
[1]
  HAS3 expression (fold change relative to blank control, normalized to beta-actin): 0.84
CD44
  CD44 expression (fold change relative to blank control, normalized to beta-actin): 1.06
